Test results reported in PMC2826142 (Journal of medicinal chemistry, 2010).
Entries after “also recorded” stand apart in the source; their conditions may differ.

What was measured:
[1] = test system: forskolin stimulated cAMP generation; assay: Forskolin stimulated cAMP generation; format: cell-based; conditions: data not shown
[2] = target: T1, human adenosine A2A receptor (Homo sapiens, UniProt P29274); assay: Functional cAMP accumulation assay; format: cell-based; conditions: 10 µM compound, 10 nM or 10 µM 3a
[3] = target: T2, human adenosine A1 receptor (Homo sapiens, UniProt P30542); assay: Radioligand; format: binding; conditions: for inhibition at 10 µM: read-out: Max Displacement A1AR-CHO membranes
T2 sequence (P30542 1-326): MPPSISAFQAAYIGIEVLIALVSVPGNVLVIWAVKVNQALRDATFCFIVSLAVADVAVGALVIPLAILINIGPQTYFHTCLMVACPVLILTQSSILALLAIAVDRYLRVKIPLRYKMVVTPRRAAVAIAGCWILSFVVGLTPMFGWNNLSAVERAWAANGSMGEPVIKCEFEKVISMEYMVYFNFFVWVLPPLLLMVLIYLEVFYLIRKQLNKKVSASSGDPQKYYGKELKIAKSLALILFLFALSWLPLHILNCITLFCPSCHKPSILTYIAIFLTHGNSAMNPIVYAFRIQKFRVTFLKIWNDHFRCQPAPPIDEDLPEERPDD

[4] = target: T1, human adenosine A2A receptor; assay: Radioligand displacement at A2AAR-HEK membranes; format: binding; conditions: for Max Displacement at A2AAR-HEK membranes: 10 µM of test compound; for A2A / A1 selectivity: mammalian membranes, A2AAR over A1AR
human A2AAR receptor = human A2AAR receptor (Homo sapiens, UniProt P29274); assay: Competition binding with tritiated compound 1; conditions: for LE (experimental ligand efficiency): ligand binding energy per heavy atom, from Sf9 Ki
[5] = Visible sedimentation in binding assay; conditions: binding assay buffer

human A2AAR receptor, sequence (P29274 whole entry): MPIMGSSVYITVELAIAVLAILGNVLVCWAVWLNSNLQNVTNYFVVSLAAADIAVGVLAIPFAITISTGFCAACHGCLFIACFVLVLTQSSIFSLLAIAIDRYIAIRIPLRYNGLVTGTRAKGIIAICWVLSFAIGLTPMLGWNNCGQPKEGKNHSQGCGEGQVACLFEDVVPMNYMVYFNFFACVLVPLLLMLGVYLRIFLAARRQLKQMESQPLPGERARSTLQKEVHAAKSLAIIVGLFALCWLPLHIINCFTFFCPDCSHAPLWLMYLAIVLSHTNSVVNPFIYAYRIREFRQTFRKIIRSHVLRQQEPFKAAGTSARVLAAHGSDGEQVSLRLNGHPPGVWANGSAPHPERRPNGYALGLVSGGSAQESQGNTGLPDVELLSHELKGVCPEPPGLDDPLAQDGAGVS
T1 sequence (P29274 whole entry): as above

Nc1c(C(=O)Nc2ccccc2F)sc2nc3c(cc12)C(=O)CCC3 [compound 6]
effect on forskolin stimulated cAMP generation [1]: inhibited
A2AAR antagonist functional activity (in words) [2]: the effect does not depend on agonist concentration
Ki [3]: 90 nM
inhibition at 10 µM [3]: 32%
Ki [4]: 60 nM
Max Displacement at A2AAR-HEK membranes [4]: 48%
A2A / A1 selectivity [4]: 1.42 fold

CN1CCc2sc3nc(C(=O)Nc4ccc(F)cc4)c(N)cc3c2C1 [compound 7]
Ki (human A2AAR receptor): 1900 nM

N#Cc1c(N)nc2c(C(N)=O)c(Nc3ccccc3)sc2c1-c1ccccc1 [compound 8]
A2AAR antagonist functional activity (in words) [2]: No A2AAR specific activity; also recorded: does not have any functional activity
Ki [3]: 60 nM
inhibition at 10 µM [3]: 100%
Ki [4]: 1140 nM
Max Displacement at A2AAR-HEK membranes [4]: 53%
A2A / A1 selectivity [4]: 0.05 fold

COc1ccc(Cl)cc1Nc1nc(N)nc(-c2oc3ccccc3c2C)n1 [compound 9]
Ki (human A2AAR receptor): 30 nM
displacement of the hot ligand (human A2AAR receptor; Sf9 membranes, at 2 µM): up to 80%
A2AAR antagonist functional activity (in words) [2]: one of the highest among the tested ligands
Ki [3]: 1440 nM
inhibition at 10 µM [3]: 41%
concentration with visible sedimentation of the compound [5]: above 10 µM
Ki [4]: 490 nM
Max Displacement at A2AAR-HEK membranes [4]: 41%
A2A / A1 selectivity [4]: 2.94 fold

CN1CCc2nc3sc(C(=O)Nc4ccc(Cl)cc4)c(N)c3cc2C1 [compound 10]
Ki [3]: 1120 nM
inhibition at 10 µM [3]: 28%
Ki [4]: > 10000 nM
binding to the HEK293 expressed A2AAR protein (in words) ([4]; HEK293 membranes): did not show any substantial binding

Nc1c(C(=O)Nc2nccs2)sc2nc3c(cc12)C(=O)CCC3 [compound 14]
Ki [3]: 140 nM
inhibition at 10 µM [3]: 25%
Ki [4]: 60 nM
Max Displacement at A2AAR-HEK membranes [4]: 54%
A2A / A1 selectivity [4]: 2.24 fold

N#Cc1c(N)nc2c(oc3ccccc32)c1-c1ccccc1 [compound 15]
Ki [3]: 480 nM
inhibition at 10 µM [3]: 27%
Ki [4]: 560 nM
Max Displacement at A2AAR-HEK membranes [4]: 73%
A2A / A1 selectivity [4]: 0.87 fold

Nc1c(C(=O)c2ccccc2)oc2ccc(Br)cc12 [compound 16]
A2AAR affinity (in words) (human A2AAR receptor; Sf9 membranes): modest affinity
LE (experimental ligand efficiency) (human A2AAR receptor): 0.38 kcal/mol per heavy atom

NC1=C(Nc2cccc(C(F)(F)F)c2)C(=O)c2ccccc2C1=O [compound 17]
LE (experimental ligand efficiency) (human A2AAR receptor): ~ 0.4 kcal/mol per heavy atom
A2AAR antagonist functional activity (in words) [2]: significant activity
Ki [3]: > 10000 nM
Ki [4]: 720 nM
Max Displacement at A2AAR-HEK membranes [4]: 73%
A2A / A1 selectivity [4]: >10. fold

Nc1c(Oc2ccccc2)ccc2c1C(=O)c1ccccc1C2=O [compound 20]
A2AAR affinity (in words) (human A2AAR receptor; Sf9 membranes): low-µM affinity

Cc1ccc(N2C(=O)c3cccc(N)c3C2=O)cc1 [compound 21]
A2AAR affinity (in words) (human A2AAR receptor; Sf9 membranes): modest
Ki [3]: 390 nM
inhibition at 10 µM [3]: 86%
Max Displacement at A2AAR-HEK membranes [4]: 57%
A2A / A1 selectivity [4]: 0.13 fold

COc1ccc(N)c2c1C(=O)c1ccccc1C2=O [compound 26]
A2AAR affinity (in words) (human A2AAR receptor; Sf9 membranes): sub-µM affinity
Ki [3]: 260 nM
inhibition at 10 µM [3]: 100%
Ki [4]: 100 nM
Max Displacement at A2AAR-HEK membranes [4]: 100%
A2A / A1 selectivity [4]: 2.74 fold

Nc1cccc2c1C(=O)c1ccccc1C2=O [compound 28]
A2AAR affinity (in words) (human A2AAR receptor; Sf9 membranes): low-µM affinity

Nc1ccc(N)c2c1C(=O)c1ccccc1C2=O [compound 29]
A2AAR affinity (in words) (human A2AAR receptor; Sf9 membranes): sub-µM affinity
Ki [3]: 280 nM
inhibition at 10 µM [3]: 100%
Ki [4]: 110 nM
Max Displacement at A2AAR-HEK membranes [4]: 100%
A2A / A1 selectivity [4]: 2.51 fold

Cn1c(=O)cc2c3c(c(N)ccc31)C(=O)c1ccccc1-2 [compound 35]
A2AAR affinity (in words) (human A2AAR receptor; Sf9 membranes): sub-µM affinity
Ki [3]: 150 nM
inhibition at 10 µM [3]: 100%
Ki [4]: 200 nM
Max Displacement at A2AAR-HEK membranes [4]: 100%
A2A / A1 selectivity [4]: 0.75 fold

Nc1c(Sc2ccccc2)cc(Sc2ccccc2)c2c1C(=O)c1ccccc1C2=O [compound 38]
A2AAR affinity (in words) (human A2AAR receptor; Sf9 membranes): low-µM affinity

CC(=O)Oc1cccc(-c2nc(C(N)=O)c(N)o2)c1 [compound 46]
A2AAR affinity (in words) (human A2AAR receptor; Sf9 membranes): modest affinity
LE (experimental ligand efficiency) (human A2AAR receptor): 0.32 kcal/mol per heavy atom

Nc1ccc(Cl)c2c1C(=O)c1ccccc1C2=O [compound 49]
A2AAR affinity (in words) (human A2AAR receptor; Sf9 membranes): sub-µM affinity
Ki [3]: 190 nM
inhibition at 10 µM [3]: 100%
Ki [4]: 940 nM

Cc1cccc(NC2=C(N)C(=O)c3ccccc3C2=O)c1 [compound 50]
LE (experimental ligand efficiency) (human A2AAR receptor): ~ 0.4 kcal/mol per heavy atom
A2AAR antagonist functional activity (in words) [2]: significant activity
Ki [3]: 1750 nM
inhibition at 10 µM [3]: 27%
Ki [4]: 150 nM
Max Displacement at A2AAR-HEK membranes [4]: 50%

Nc1ccc(-c2nc3c(N)cccc3[nH]2)cc1 [compound 57]
LE (experimental ligand efficiency) (human A2AAR receptor): 0.32 kcal/mol per heavy atom
